Test results from PubChem BioAssay (NCI).
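Compound exposure: 48 hours, 5 concentrations, 96-well plates. TGI: total growth inhibition.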

Assays:
Experiment in all cases: DTP human tumour cell line panel, 48 h
[1] = tested on: EKVX NSCLC
[2] = tested on: KM12 colon
[3] = tested on: COLO 205 colon
[4] = tested on: ACHN renal
[5] = tested on: SNB-75 CNS
[6] = tested on: MDA-MB-435
[7] = tested on: OVCAR-4 ovarian
[8] = tested on: M14 melanoma
[9] = tested on: PC-3 prostate
[10] = tested on: NCI-H522 lung
[11] = tested on: A549 NSCLC
[12] = tested on: NCI/ADR-RES ovarian
[13] = tested on: T-47D breast

SMILES	TGI [1] [µM]	TGI [2] [µM]	TGI [3] [µM]	TGI [4] [µM]	TGI [5] [µM]	TGI [6] [µM]	TGI [7] [µM]	TGI [8] [µM]	TGI [9] [µM]	TGI [10] [µM]	TGI [11] [µM]	TGI [12] [µM]	TGI [13] [µM]
C=CC(O)(CBr)CCC(Br)C(=C)C (stereo not given)	> 10	> 10	> 10	> 10	> 10	> 10	> 10	> 10	> 10	> 10	> 10	> 10	> 10
CC(Oc1ccccc1Cl)C(=O)NN1C(=O)CC(=O)N(c2ccccc2)C1=S (stereo not given)	> 100	> 100	> 100	> 100	> 100	> 100	> 100	> 100	> 100	> 100	> 100	> 100	> 100
COc1ccc(/C=C2/CSCC3=C2NC(=S)NC3c2ccc(OC)c(OC)c2OC)c(OC)c1OC (stereo not given)	> 100	34.1	76.9	52.5	> 100	61.4	74.4	32.6	46.2	97.5	95.9	32.2	> 100
Cc1cccc(Br)[n+]1[O-]	> 100	> 100	> 100	> 100	> 100	> 100	> 100	> 100	> 100	> 100	> 100	> 100	> 100
CSc1nc(C)cc(Nc2ccc(O)c(CN3CCOCC3)c2)n1	> 100	> 100	> 100	> 100	> 100	> 100	> 100	> 100	> 100	> 100	> 100	> 100	> 100
